Results on 2 molecules are retold here after patent publication US20050113274A1, “Hydrocarbyl aminohydrocarbonoates and aminohydrocarbonol hydrocarbonoates as antimicrobial and antiviral agents” (priority 2003, published 2005).

One test deals with stratum corneum proteins. The settings on record: FIG. 1; compared with control; cited from earlier work.
The test system of a further test is microorganism growth. In words: Visual microorganism growth testing of formulations. Type of test: cell-based. The conditions noted are these: room temperature and refrigerator conditions; test period of 2 months. The method, then:
Additional formulations (such as in the examples that follow) were prepared and submitted to visual microorganism growth testing at room temperature (RT) and refrigerator conditions. The examples given below constitute some typical samples of various formulations prepared and tested.

For another test, the system named is Escherichia coli. Briefly: USP Antimicrobial Preservatives Effectiveness Test, E. coli. The conditions noted are these: DDAIP formulation of Example 1. Type of test: cell-based. The source says:
(§1) Thus, in the presence of Pseudomonas aeruginosa, […], Candida albicans, Streptococcus aureus, and Escherichia coli after 7 days of study less than 10 cfu/ml remained, with Aspergillus niger this value was observed after 21 days of study.

The subject of another test is Aspergillus niger. In words: USP Antimicrobial Preservatives Effectiveness Test, A. niger. Type of test: cell-based. The settings on record: DDAIP formulation of Example 1.
Description: as §1

The next test relates to Streptococcus aureus. In words: USP Antimicrobial Preservatives Effectiveness Test, S. aureus. Type of test: cell-based. The conditions noted are these: DDAIP formulation of Example 1.
Description: as §1

Another test relates to Candida albicans. In words: USP Antimicrobial Preservatives Effectiveness Test, C. albicans. It counts as cell-based. The settings on record: DDAIP formulation of Example 1.
Description: as §1

Another test relates to Pseudomonas aeruginosa. Briefly: USP Antimicrobial Preservatives Effectiveness Test, P. aeruginosa. Type of test: cell-based. The settings on record: DDAIP formulation of Example 1.
Description: as §1

Turning to `CCCCCCCCCCCCOC(=O)C(C)N(C)C` (stereo not shown) [DDAIP, Dodecyl 2-(N,N-dimethylamino)propionate], the “number of free thiol groups of stratum corneum proteins (effect on protein domain)” value in the test with stratum corneum proteins is “effect on the protein domain”. Further, the visual microorganism growth entry in the test with microorganism growth is recorded as “no growth was observed”. For the same molecule, the “E. coli (cfu/ml), 7 days” value in the test on Escherichia coli (7 days) is less than 1 cfu/ml. Further, the “E. coli (cfu/ml), 14 days” value in the test with Escherichia coli (14 days) is listed as less than 1 cfu/ml. Moreover, the “E. coli (cfu/ml), Time Zero” value in the test with Escherichia coli (day zero count) came to 5.70E+05 cfu/ml. Further, the “A. niger (cfu/ml), 7 days” value with Aspergillus niger (7 days) is given as 1.40E+03 cfu/ml. Also, the “A. niger (cfu/ml), 14 days” value in the test on Aspergillus niger (14 days) came out at 3.00E+02 cfu/ml. Also, in the test with Aspergillus niger (day zero count), the “A. niger (cfu/ml), Time Zero” value is recorded as 3.05E+05 cfu/ml. In addition, the “S. aureus (cfu/ml), 7 days” value in the test on Streptococcus aureus (7 days) was less than 10 cfu/ml. For the same molecule, in the test with Streptococcus aureus (14 days), the “S. aureus (cfu/ml), 14 days” value is less than 10 cfu/ml. Moreover, in the test with Streptococcus aureus (21 days), the “S. aureus (cfu/ml), 21 days” value was less than 10 cfu/ml. The “S. aureus (cfu/ml), 28 days” value with Streptococcus aureus (28 days) was less than 10 cfu/ml. In addition, the “S. aureus (cfu/ml), Time Zero” value in the test on Streptococcus aureus (day zero count) was determined as 6.90E+05 cfu/ml. The “C. albicans (cfu/ml), 7 days” value with Candida albicans (7 days) is less than 10 cfu/ml. Besides, the “C. albicans (cfu/ml), 14 days” value in the test with Candida albicans (14 days) was less than 10 cfu/ml. Besides, the “C. albicans (cfu/ml), Time Zero” value with Candida albicans (day zero count) was 3.45E+05 cfu/ml. In addition, the “P. aeruginosa (cfu/ml), 7 days” value with Pseudomonas aeruginosa (7 days) was less than 10 cfu/ml. Moreover, in the test on Pseudomonas aeruginosa (14 days), the “P. aeruginosa (cfu/ml), 14 days” value was less than 10 cfu/ml. The “P. aeruginosa (cfu/ml), 21 days” value in the test on Pseudomonas aeruginosa (21 days) is recorded as less than 10 cfu/ml. Further, in the test with Pseudomonas aeruginosa (28 days), the “P. aeruginosa (cfu/ml), 28 days” value is given as less than 10 cfu/ml. Besides, the “P. aeruginosa (cfu/ml), Time Zero” value with Pseudomonas aeruginosa (day zero count) is reported as 3.55E+05 cfu/ml.

Regarding `CCO` [ethanol, reference compound], the “number of free thiol groups of stratum corneum proteins (effect on protein domain)” value in the test with stratum corneum proteins is given as “affects protein domain”.
